These results are taken from US20230391808A1, “PHOSPHAPHENALENE-GOLD(I) COMPLEXES AS CHEMOTHERAPEUTIC AGENTS AGAINST GLIOBLASTOMA” (priority 2020, published 2023).

The subject of one series is HNO210. Nature of the series: Crystal violet proliferation assay, head and neck cancer HNO210. The series is classed as cell-based, human. The settings on record: head and neck cancer cell line, 48 h, mean of three biological replicates ± standard deviation. The source says:
(§1) Based on the remarkable results obtained with Compound 6, its anti-proliferative effects on a series of different cancer cell lines was investigated. To that end, in addition to the three glioblastoma cell lines described above, Compound 6 was employed on eleven other cancer cell lines including brain metastasis (NCH517, NCH604a and NCH466), meningioma (NCH93 and BenMen-1), IDH-mutant glioma (NCH511b, NCH1618 and NCH3763), and head and neck cancer cell lines (HNO210, HNO199 and HNO97) (Table 3).
(§2) The effect of different compounds on cell growth was evaluated by the crystal violet method as described earlier (J. P. Rigalli et al., Cancer Lett. 2016, 376, 165-172). Briefly, cells were seeded in 96-well plates (10,000 cells/well). […] After 48 h of exposure extent of cell proliferation inhibition was determined by crystal violet staining of surviving cells. […]
(§3) Next, crystal violet was solubilized in methanol and absorbance was measured at 555 nm. The proliferative index was calculated as crystal violet absorption intensity as percentage relative to baseline (no cells) as described before (T. Peters et al., Naunyn Schmiedebergs Arch Pharmacol. 2006, 372, 291-299.) Cell survival plotted against the decimal logarithm of drug concentration in μM (c (of compound x) in μM) and fitted to a sigmoidal dose-response curve using Graph Pad Prism 7.02 (GraphPad Software, San Diego, USA).

Series [1] can be described thus: Stability under controlled thermodynamic conditions upon repetitive cycles of illumination. It is filed as physicochemical. The settings on record: data not shown.
In a further series the test system is NCH82. Nature of the series: Crystal violet proliferation assay, NCH82. The series is classed as cell-based, human. The settings on record: glioblastoma cell line, 48 h exposure, mean of three biological replicates ± standard deviation.
The next series relates to HNO199. Nature of the series: Crystal violet proliferation assay, head and neck cancer HNO199. It is filed as cell-based, human. The settings on record: head and neck cancer cell line, 48 h, mean of three biological replicates ± standard deviation.
Description: as §1, §2, §3

The subject of series [2] is cancer cell lines derived from brain metastases, meningiomas, IDH-mutant gliomas and head and neck cancers. Nature of the series: Annexin V apoptosis assay (flow cytometry), all analyzed cell lines. It is filed as cell-based, human. The settings on record: 48 hours (FIG. 4). As to the method: (§4) For this purpose, cells were incubated with different concentrations of Compound 6 for 48 hours and subsequently analyzed by flow cytometry (see representative example in FIG. 4A). Annexin V and propidium iodide (PI) were used as indicators for apoptosis/necrosis.
(§5) To quantitate the extent of apoptosis and necrosis, either annexin V staining combined with DAPI or double labeling of cells with annexin V and propidium iodide (PI) was used. The double labeling allows the distinction between apoptotic (annexin V^pos/DAPI^neg or annexin V^pos/PI^neg) and necrotic (annexin V^pos/DAPI^pos or annexin V^pos/PI^pos) cells. Cells were seeded in a 6-well plate (2.5×10^5/well) and left to attach overnight. […]
(§6) After treatment supernatant containing apoptotic and necrotic cells was collected, cells were harvested, washed, and up to 1×10^6 cells were incubated with FITC-conjugated annexin V antibody diluted in 1:1000 DAPI solution following manufactures instructions (#51-65874X, BD Bioscienes, Franklin Lakes, USA) or incubated with FITC-conjugated annexin V antibody and PI for 15 min following manufacturer instructions (#51-65974X, BD Biosciences, Franklin Lakes, USA). Cells were acquired by flow cytometry using a BD LSRII flow cytometer (BD Bioscienes, Franklin Lakes, USA) and analyzed by FlowJo Software v7.6.5 (TreeStar, Ahland, USA).
Background: A flow cytometer gives signals particle by particle.

Series [3] deals with NCH517. Nature of the series: Crystal violet proliferation assay, brain metastasis NCH517. It is filed as cell-based, human. The settings on record: brain metastasis cell line, 48 h, mean of three biological replicates ± standard deviation.
Description: as §1, §2, §3

The next series has as its system NCH551b. Nature of the series: CellTiter-Glo proliferation assay, IDH-mutant glioma NCH551b. It is filed as cell-based, human. The settings on record: IDH-mutant glioma cell line, 48 h, mean of three biological replicates ± standard deviation.
Description: as §1
(§7) To assess the effect of Compound 4 and Compound 6 on cell growth of glioma stem-like cells (GSC) and GSC lines derived from IDH-mutant gliomas, cellular ATP levels were measured using the luminescent CellTiter-Glo Assay (Promega Corp, Madison, WI). GCS spheroid cultures were gently dissociated and cell suspensions were seeded in 96-well tissue culture plates (8,000 cells/well, 100 μl/well). After a 24-hour incubation period without any compound freshly reconstituted compound in ten final concentrations ranging from 0.01 μM to 200 μM were added and cells were incubated for 48 hours.
(§8) Before measurement, the plate was equilibrated at room temperature for 30 minutes. […] Next, the plate was incubated for 10 minutes at room temperature and finally, the luminescence was measured. […]

The next series concerns BenMen-1. Nature of the series: Crystal violet proliferation assay, meningioma BenMen-1. The series is classed as cell-based, human. The settings on record: meningioma cell line, 48 h, mean of three biological replicates ± standard deviation.
Description: as §1, §2, §3

Series [4] concerns NCH466. Nature of the series: Annexin V apoptosis assay (flow cytometry), NCH466. The settings on record: drug concentration of 2 μM, 48 hours. It is filed as cell-based, human. As to the method:
as §4, §5, §6

The test system of series [5] is NCH517. Nature of the series: Annexin V apoptosis assay (flow cytometry), NCH517. The series is classed as cell-based, human. The settings on record: drug concentration of 2 μM, 48 hours. As to the method:
as §4, §5, §6

Series [6] has as its system NCH604a. Nature of the series: Crystal violet proliferation assay, brain metastasis NCH604a. The series is classed as cell-based, human. The settings on record: brain metastasis cell line, 48 h, mean of three biological replicates ± standard deviation.
Description: as §1, §2, §3

The subject of series [7] is NCH93. Nature of the series: Crystal violet proliferation assay, meningioma NCH93. The settings on record: meningioma cell line, 48 h, mean of three biological replicates ± standard deviation. It is filed as cell-based, human.
Description: as §1, §2, §3

The test system of series [8] is NCH604a. Nature of the series: Annexin V apoptosis assay (flow cytometry), NCH604a. The series is classed as cell-based, human. The settings on record: drug concentration of 2 μM, 48 hours. On the procedure: as §4, §5, §6
The test system of a further series is NCH1618. Nature of the series: CellTiter-Glo proliferation assay, IDH-mutant glioma NCH1618. The series is classed as cell-based, human. The settings on record: IDH-mutant glioma cell line, 48 h, mean of three biological replicates ± standard deviation.
Description: as §1, §7, §8

For another series, the system named is NCH149. Nature of the series: Crystal violet proliferation assay, NCH149. The series is classed as cell-based, human. The settings on record: glioblastoma cell line, 48 h exposure, mean of three biological replicates ± standard deviation. On the procedure:
In order to investigate the role of the fused phosphaphenalene ring in the bio-activity of the drug, the ability of Compound 5 to inhibit cell proliferation in the glioblastoma cell lines NCH82, NCH89 and NCH149 was examined. For this purpose, cells were incubated with increasing concentrations of Compound 5 and cell proliferation was evaluated by crystal violet assay.
The effect of different compounds on cell growth was evaluated by the crystal violet method as described earlier (J. P. Rigalli et al., Cancer Lett. 2016, 376, 165-172). Briefly, cells were seeded in 96-well plates (10,000 cells/well). After 24 h cell culture medium was replaced by fresh compound-containing medium (ten different concentrations (0.01 to 200 μM μM)). After 48 h of exposure extent of cell proliferation inhibition was determined by crystal violet staining of surviving cells. Therefore, cells were washed and stained with 0.5% crystal violet solution (2.5 g in 100 ml methanol, diluted with 400 ml aqua bidest) for 15 min, rinsed and dried overnight.
as §3

Another series deals with NCH82 cell line. Nature of the series: Drug uptake kinetics by fluorescence microscopy. It is filed as cell-based, human. As to the method:
Based on the observed high bio-activity and the spectroscopic properties of Compound 6 as an example of the present invention, the drug uptake kinetics was investigated in NCH82 cell line. To this end, cells were treated with increasing concentrations of Compound 6 and its drug uptake was monitored with a fluorescence microscope (excitation/emission 350/455 nm; data not shown).
To measure the uptake kinetics of compound 6 by NCH82 cells, they were seeded in a 96-well plate (5,000 cells/well) and after 24 h, cell culture medium was replaced with compound 6 or DMSO-containing medium (0.1, 1 and 10 μM). Images were taken with a fluorescence microscope (Olympus, Shinjuku, Japan) at 1 h, 24 h and 48 h after treatment initiation. A laser with an excitation/emission spectrum of 350/455 nm was used and images were taken with a 10× objective.

A further series has as its system NCH89. Nature of the series: Crystal violet proliferation assay, NCH89. The settings on record: glioblastoma cell line, 48 h exposure, mean of three biological replicates ± standard deviation. It is filed as cell-based, human.
The test system of a further series is NCH3763. Nature of the series: CellTiter-Glo proliferation assay, IDH-mutant glioma NCH3763. The series is classed as cell-based, human. The settings on record: IDH-mutant glioma cell line, 48 h, mean of three biological replicates ± standard deviation.
Description: as §1, §7, §8
(In general: In ATP-based viability assays light output follows the ATP content of the culture.)

In a further series the test system is HNO97. Nature of the series: Crystal violet proliferation assay, head and neck cancer HNO97. The series is classed as cell-based, human. The settings on record: head and neck cancer cell line, 48 h, mean of three biological replicates ± standard deviation.
Description: as §1, §2, §3

In series [9] the test system is head and neck cancer cell lines. Nature of the series: Annexin V apoptosis assay (flow cytometry), head and neck cancer cell lines. It is filed as cell-based, human. The settings on record: drug concentration of 5 μM, 48 hours. On the procedure:
as §4, §5, §6

Series [10] deals with NCH466. Nature of the series: Crystal violet proliferation assay, brain metastasis NCH466. It is filed as cell-based, human. The settings on record: brain metastasis cell line, 48 h, mean of three biological replicates ± standard deviation.
Description: as §1, §2, §3

Series [11] relates to NCH93. Nature of the series: Annexin V apoptosis assay (flow cytometry), NCH93. It is filed as cell-based, human. The settings on record: drug concentration of 2 μM, 48 hours. As to the method: as §4, §5, §6
In the next series the test system is cancer cell lines. Nature of the series: Anti-proliferative effects on a series of different cancer cell lines. The series is classed as cell-based, human. The settings on record: summary over all cell lines of Table 3; read-out: mean IC50 values in some cell lines.
Description: as §1, §2
Next, crystal violet was solubilized in methanol and absorbance was measured at 555 nm. The proliferative index was calculated as crystal violet absorption intensity as percentage relative to baseline (no cells) as described before (T. Peters et al., Naunyn Schmiedebergs Arch Pharmacol. 2006, 372, 291-299.) Cell survival plotted against the decimal logarithm of drug concentration in μM (c (of compound x) in μM) and fitted to a sigmoidal dose-response curve using Graph Pad Prism 7.02 (GraphPad Software, San Diego, USA). […]

The structures appear in SMILES notation.

The IC50 is the concentration that gives 50% inhibition.

For `CC(=O)OC[C@H]1O[C@@H]([S][Au-][P+]2(c3ccccc3)c3ccn(C)c3-c3cccc4cccc2c34)[C@H](OC(C)=O)[C@@H](OC(C)=O)[C@@H]1OC(C)=O` (stereo partly drawn) [Compound 6], the IC50 in the series on HNO210 came to 1100 ± 80 nM; in the series with NCH82, 730 nM; in the series on HNO199 it was 2650 ± 250 nM; in the series on NCH517 [3], 1600 ± 300 nM; with NCH551b, 1230 ± 250 nM; with BenMen-1, 1320 ± 120 nM. The IC50 with NCH604a [6] worked out at 1860 ± 140 nM; in the series on NCH93 [7] it was 1350 ± 90 nM; in the series on NCH1618, 880 nM; with NCH149, 870 nM; in the series on NCH89, 4 µM; in the series with NCH3763, 5.21 ± 0.31 µM. Besides, the half-maximal inhibitory concentration (IC50) is 5.51 ± 1.04 µM with HNO97, 1010 ± 20 nM in the series on NCH466 [10] and around 1500 nM with cancer cell lines. In addition, in [1], the “stability upon repetitive cycles of illumination” value is listed as “very high stability”. The “induction of apoptosis/necrosis in all analyzed cell lines” value in [2] was “able to induce apoptosis/necrosis”. In addition, in the series on NCH466 [4], the “cells in apoptosis/necrosis, NCH466” value was “more than 50%”. The “cells in apoptosis/necrosis, NCH517” value in the series on NCH517 [5] is “more than 50%”. In the series on NCH604a [8], the “cells in apoptosis/necrosis, NCH604a” value is reported as “more than 50%”. Also, the “time after treatment initiation at which dead cells were first observed” value in the series with NCH82 cell line (0.1 μM) was 48 h. Further, the “time after which cell death could be observed” value with NCH82 cell line (1 μM) is 24 h. Also, the “cells in apoptosis/necrosis, head and neck cancer cell lines” value in [9] was “more than 50%”. In addition, the “cells in apoptosis/necrosis, NCH93” value with NCH93 [11] was “more than 50%”.
